From BindingDB's records for doi:10.1016/j.ejmech.2016.06.019 (Federal University of Minas Gerais, 2016) come the findings set out here.

The nature of the assay: Activation of NQO1 in human A549 cells assessed as decrease in cell survival incubated for 2 hrs measured after 7 days in presence of NQO1 inhibitor dicoumarol by Hoechst 33258 staining based assay.
One may read the IC50 as the point on the concentration scale where inhibition reaches its midpoint. For the molecule `CC1(C)OC2=C(C(=O)C(=O)c3ccccc32)C1Nc1cccc(-c2cn(C[Se]c3ccccc3)nn2)c1` (centres undefined), the half-maximal inhibitory concentration (IC50) is over 3.2 µM.
On to `CC1(C)OC2=C(C(=O)C(=O)c3ccccc32)C1Nc1ccc([N+](=O)[O-])cc1` (centres undefined), for which the concentration for half-maximal inhibition (IC50) was over 3.2 µM.
As for `CC1(C)OC2=C(C(=O)C(=O)c3ccccc32)C1Nc1cccc([N+](=O)[O-])c1` (centres undefined), the IC50 was over 3.2 µM.
For `CC1(C)OC2=C(C(=O)C(=O)c3ccccc32)C1Nc1ccc(F)c([N+](=O)[O-])c1` (centres undefined), the concentration for half-maximal inhibition (IC50) was over 3.2 µM.
